Tested on: patients with congestive heart failure or recent myocardial infarction
Details: human, in vivo
Source text: Genomic DNA samples were obtained from the blood samples of patients enrolled in the DIAMOND study (Danish Investigations of Arrhythmia and Mortality on Dofetilide) or a clinical protocol similar in nature to the DIAMOND Study. These studies focused on the effects of Dofetilide on two populations of patients, one with congestive heart failure and one with recent myocardial infarction associated with left ventricular dysfunction (ejection fraction <35%) (Moller, M., (1996) Lancet, 348(9041):1597-8; Moller, M. et al., (1997) Congest Heart Fail., 7(3):146-150). DNA samples were obtained from 105 patients in total. Of the 105 patients, 7 developed torsade de pointes (TdP) upon treatment with Dofetilide while the remaining 98 patients responded to treatment without developing TdP as a side effect.

`CN(CCOc1ccc(NS(C)(=O)=O)cc1)CCc1ccc(NS(C)(=O)=O)cc1` [Dofetilide] was tested, and the “patients who developed torsade de pointes (TdP) upon treatment” value was 7.

Reference: patent publication US20050059032A1, “Methods & compositions relating to drug-induced arrhythmia” (Pfizer Inc, priority 2002, published 2005)
